Values of other authors, collected in patent US20150141404A1, “NON-IONIC VESICLE FORMULATIONS OF CALCIUM CHANNEL BLOCKERS” (CONTRACT PHARMACEUTICALS LIMITED, priority 2012, published 2015).

System: anal fissure
Details: topical

For COc1ccc([C@@H]2Sc3ccccc3N(CCN(C)C)C(=O)[C@@H]2OC(C)=O)cc1 [diltiazem, Diltiazem], the healing rates is listed as “improved” and the “maximum resting pressure (MRP)” value is listed as “reduces”.
